According to patent US4193996A, “Spiro-quinolone hydantoins” (Pfizer Inc., priority 1979, dated 1980):

Key:
aldose reductase = experiment: Inhibition of aldose reductase enzyme activity (partially purified enzyme from calf lens); format: biochemical
Procedure: The compounds of Examples 3 and 4 were tested for their ability to reduce or inhibit aldose reductase enzyme activity, following the procedure described in U.S. Pat. No. 3,821,383 and based on the procedure of Hayman et. al., Journal of Biological Chemistry, 240, 877 (1965). The substrate employed was partially purified aldose reductase enzyme obtained from calf lens.

[1] = tested on: sorbitol accumulation in the sciatic nerve; experiment: Inhibition of sorbitol accumulation in the sciatic nerve of streptozotocinized (diabetic) rats; format: in vivo, rat; details: oral, at 4, 8 and 24 hours after streptozotocin, measured 27 hours after induction of diabetes
Procedure: The compounds of Examples 3 and 4 were tested for their ability to reduce or inhibit sorbitol accumulation in the sciatic nerve of streptozotocinized (i.e. diabetic) rats by the procedure essentially described in U.S. Pat. No. 3,821,383. In the present study, the amount of sorbitol accumulation in the sciatic nerves was measured 27 hours after induction of diabetes. The compounds were administered orally at the dose levels indicated at 4, 8 and 24 hours following the administration of streptozotocin. The results obtained in this manner are presented below in terms of percent inhibition (%) afforded by the test compound as compared to the case where no compound was administered (i.e. the untreated animal, where sorbitol levels normally rise from approximately […]. tissue in the 27-hour test period): […]

O=C1NC(=O)C2(CCn3c(=O)ccc4cccc2c43)N1 (stereo not shown) [Example 3, Spiro[2,3-dihydro-1H, 5H-benzo[ij]quinolizin [1,4']imidazolidin]-2', 5, 4'-trione]
% Inhibition at 10^-6 m (inhibition of aldose reductase enzyme activity) (aldose reductase): 86%
% Inhibition at 1.5 mg/kg (sorbitol accumulation in the sciatic nerve vs untreated) [1]: 27%

O=C1NC(=O)C2(CCn3c(=O)ccc4cc(Cl)cc2c43)N1 (stereo not shown) [Example 4, 10-Chloro-spiro[2,3-dihydro-1H, 5H-benzo[ij]quinolizin[1,4']imidazolidin]-2', 5, 5'-trione]
% Inhibition at 10^-6 m (inhibition of aldose reductase enzyme activity) (aldose reductase): 94%
% Inhibition at 1.5 mg/kg (sorbitol accumulation in the sciatic nerve vs untreated) [1]: 32%
